Data as given in patent US8304427B2, “Acylthiourea compound or salt thereof, and use thereof” (Taiho Pharmaceutical Co., Ltd., priority 2008, dated 2012).
Where a name gives a salt, the structure may show the parent alone.

target: T1, c-Met (Homo sapiens, UniProt P08581); assay: c-Met inhibitory assay using DeskTop Profiler (Method B); type: biochemical; parameters: made in house; settings: ATP 43 μM
Procedure: Method B) c-Met Inhibitory Assay Using DeskTop Profiler
A dephosphorylation enzyme inhibitor cocktail (PhosSTOP, #4906837, product of Roche) and a protease inhibitor cocktail (Complete, Mini, EDTA-free, #1836170; product of Roche) were added to a reaction buffer (100 mM HEPES (pH: 7.5), 10 mM MgCl2, 0.003% Brij-35, 0.04% Tween, and 1 mM DTT). In the presence of the compound of the present invention, recombinant c-Met (purified product of Taiho Pharmaceutical Co., Ltd.), fluorescence-labeled c-Met substrate peptide (FL-Peptide 2, #760346, Caliper Life Sciences) (final concentration: 1.5 μM), and ATP (final concentration: 43 μM) were added thereto, and the mixture was allowed to react at 28° C. for 90 minutes. EDTA was added to the reaction mixture to a final concentration of 10 mM, to thereby terminate reaction. By use of DeskTop Profiler (#119900, Caliper Life Sciences), each fluorescence intensity of the substrate and that of the phosphorylated product was determined, whereby the amount of the formed phosphorylated product was determined. The compound concentration that realizes 50% inhibition of formation of phosphorylated product was defined as IC50 (μM), and the results are shown in the following Tables.
Target sequence in this assay (P08581 25-1390): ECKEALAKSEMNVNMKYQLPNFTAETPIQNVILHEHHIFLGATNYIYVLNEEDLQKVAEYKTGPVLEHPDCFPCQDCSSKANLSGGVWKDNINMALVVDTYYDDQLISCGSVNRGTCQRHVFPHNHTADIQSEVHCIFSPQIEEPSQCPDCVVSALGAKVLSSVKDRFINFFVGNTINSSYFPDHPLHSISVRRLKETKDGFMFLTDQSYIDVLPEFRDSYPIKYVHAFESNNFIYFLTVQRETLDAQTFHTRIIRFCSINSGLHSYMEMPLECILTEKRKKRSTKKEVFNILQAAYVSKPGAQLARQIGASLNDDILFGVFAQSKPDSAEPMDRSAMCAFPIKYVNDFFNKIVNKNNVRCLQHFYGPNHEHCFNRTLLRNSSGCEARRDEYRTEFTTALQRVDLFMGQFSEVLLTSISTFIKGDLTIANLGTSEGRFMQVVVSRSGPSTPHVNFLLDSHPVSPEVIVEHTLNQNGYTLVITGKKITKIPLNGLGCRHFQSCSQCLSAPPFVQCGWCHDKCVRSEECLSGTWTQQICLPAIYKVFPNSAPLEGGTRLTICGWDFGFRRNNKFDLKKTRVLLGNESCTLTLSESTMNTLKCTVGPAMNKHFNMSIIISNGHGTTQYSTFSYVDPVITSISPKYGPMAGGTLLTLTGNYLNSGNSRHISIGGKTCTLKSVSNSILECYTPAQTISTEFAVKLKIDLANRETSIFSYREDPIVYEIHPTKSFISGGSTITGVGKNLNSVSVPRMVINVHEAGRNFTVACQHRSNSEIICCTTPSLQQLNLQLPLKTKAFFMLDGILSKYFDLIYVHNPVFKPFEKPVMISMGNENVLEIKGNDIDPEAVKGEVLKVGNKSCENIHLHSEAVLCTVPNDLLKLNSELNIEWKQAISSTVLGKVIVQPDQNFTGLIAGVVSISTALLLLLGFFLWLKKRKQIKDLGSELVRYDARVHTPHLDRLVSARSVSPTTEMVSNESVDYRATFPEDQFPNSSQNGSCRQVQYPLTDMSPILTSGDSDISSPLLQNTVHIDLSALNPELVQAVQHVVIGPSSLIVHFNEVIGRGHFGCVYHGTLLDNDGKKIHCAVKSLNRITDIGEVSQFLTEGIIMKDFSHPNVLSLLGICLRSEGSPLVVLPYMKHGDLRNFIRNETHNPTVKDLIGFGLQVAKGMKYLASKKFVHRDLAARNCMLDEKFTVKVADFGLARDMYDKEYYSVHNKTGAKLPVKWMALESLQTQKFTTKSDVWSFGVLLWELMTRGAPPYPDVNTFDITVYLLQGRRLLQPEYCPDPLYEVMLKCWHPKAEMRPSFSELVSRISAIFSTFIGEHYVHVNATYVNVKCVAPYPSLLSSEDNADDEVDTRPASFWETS

IC50 [nM]	SMILES
26	CC[C@@H](CO)NC(=O)c1cc2c(Oc3ccc(NC(=S)NC(=O)Cc4ccccc4)cc3F)ccnc2cc1OC [Example 31, (S)-4-(2-Fluoro-4-(3-(2-phenylacetyl)thioureido)phenoxy)-N-(1-hydroxybutan-2-yl)-7-methoxyquinoline-6-carboxamide]
12	COCCNC(=O)CNC(=O)c1cc2c(Oc3ccc(NC(=S)NC(=O)Cc4ccccc4)cc3F)ccnc2cc1OC [Example 33, 4-(2-Fluoro-4-(3-(2-phenylacetyl)thioureido)phenoxy)-7-methoxy-N-(2-(2-methoxyethylamino)-2-oxoethyl)quinoline-6-carboxamide]
31	CCN(CC(C)(C)O)C(=O)CNC(=O)c1cc2c(Oc3ccc(NC(=S)NC(=O)Cc4ccccc4)cc3F)ccnc2cc1OC [Example 35, N-(2-(Ethyl(2-hydroxy-2-methylpropyl)amino)-2-oxoethyl)-4-(2-fluoro-4-(3-(2-phenylacetyl)thioureido)phenoxy)-7-methoxyquinoline-6-carboxamide]
52	COc1cc2nccc(Oc3ccc(NC(=S)NC(=O)Cc4ccccc4)cc3F)c2cc1C(=O)NCCC(=O)N(C)C [Example 36, N-(3-(Dimethylamino)-3-oxopropyl)-4-(2-fluoro-4-(3-(2-phenylacetyl)thioureido)phenoxy)-7-methoxyquinoline-6-carboxamide]

target: T1, c-Met; assay: c-Met inhibitory assay using AlphaScreen (Method A); type: biochemical; parameters: purchased Carna bio Co., Ltd 08-051; settings: ATP 20 μM
Procedure: Inhibitory activity of compounds against c-Met kinase was determined through the following procedures. Method A) c-Met inhibitory assay using AlphaScreen™
A biotinylated peptide including a phosphorylated site of Pyk2 (Tyr402), which is reported as a bio-substrate in Clin. Cancer Res. vol. […] The mixture was allowed to react at room temperature for 20 minutes. EDTA was added to the reaction mixture to a final concentration of 50 mM, to thereby terminate reaction. […] The reaction was done for one hour at room temperature. Thereafter, the fluorescence intensity from the reaction mixture was measured using a multi-label counter (EnVision™, Perkin Elmer).
Target sequence in this assay (P08581 956-1390 limits assumed): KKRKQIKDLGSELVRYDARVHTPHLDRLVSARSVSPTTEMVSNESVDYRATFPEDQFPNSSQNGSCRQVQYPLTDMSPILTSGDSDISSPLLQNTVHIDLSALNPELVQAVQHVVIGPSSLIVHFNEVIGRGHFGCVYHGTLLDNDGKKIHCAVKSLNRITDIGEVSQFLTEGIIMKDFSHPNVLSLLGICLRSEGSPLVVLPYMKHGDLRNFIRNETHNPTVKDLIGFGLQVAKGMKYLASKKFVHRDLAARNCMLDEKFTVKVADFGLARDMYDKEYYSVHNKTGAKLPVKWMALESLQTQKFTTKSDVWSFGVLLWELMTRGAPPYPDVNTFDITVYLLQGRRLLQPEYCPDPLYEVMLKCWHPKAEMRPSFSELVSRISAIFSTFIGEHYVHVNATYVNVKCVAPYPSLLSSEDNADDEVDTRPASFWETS

IC50 [nM]	SMILES
210	COc1cc2nccc(Oc3ccc(NC(=S)NC(=O)Cc4ccccc4)cc3F)c2cc1C(=O)NCCCOC(C)C [Example 1, 4-(2-Fluoro-4-(3-(2-phenylacetyl)thioureido)phenoxy)-N-(3-isopropyloxypropyl)-7-methoxyquinoline-6-carboxamide]
167	COc1cc2nccc(Oc3ccc(NC(=S)NC(=O)Cc4ccccc4)cc3F)c2cc1C(=O)NCC1COC(C)(C)O1 (stereo not drawn) [Example 2, N-((2,2-Dimethyl-1,3-dioxolan-4-yl)methyl)-4-(2-fluoro-4-(3-(2-phenylacetyl)thioureido)phenoxy)-7-methoxyquinoline-6-carboxamide]
62	COc1cc2nccc(Oc3ccc(NC(=S)NC(=O)Cc4ccccc4)cc3F)c2cc1C(=O)NCC(O)CO (stereo not drawn) [Example 3, N-(2,3-Dihydroxypropyl)-4-(2-fluoro-4-(3-(2-phenylacetyl)thioureido)phenoxy)-7-methoxyquinoline-6-carboxamide]
140	COc1cc2nccc(Oc3ccc(NC(=S)NC(=O)Cc4ccccc4)cc3F)c2cc1C(=O)NCc1cccnc1 [Example 4, 4-(2-Fluoro-4-(3-(2-phenylacetyl)thioureido)phenoxy)-7-methoxy-N-(pyridin-3-ylmethyl)quinoline-6-carboxamide]
104	CNC(=O)c1cc2c(Oc3ccc(NC(=S)NC(=O)Cc4ccccc4)cc3F)ccnc2cc1OC [Example 6, 4-(2-Fluoro-4-(3-(2-phenylacetyl)thioureido)phenoxy)-7-methoxy-N-methylquinoline-6-carboxamide]
50	COCCNC(=O)c1cc2c(Oc3ccc(NC(=S)NC(=O)Cc4ccccc4)cc3F)ccnc2cc1OC [Example 7, 4-(2-Fluoro-4-(3-(2-phenylacetyl)thioureido)phenoxy)-7-methoxy-N-(methoxyethyl)quinoline-6-carboxamide]
106	CCN(CC)CCNC(=O)c1cc2c(Oc3ccc(NC(=S)NC(=O)Cc4ccccc4)cc3F)ccnc2cc1OC [Example 8, N-(2-(Diethylamino)ethyl)-4-(2-fluoro-4-(3-(2-phenylacetyl)thioureido)phenoxy)-7-methoxyquinoline-6-carboxamide]
102	COc1cc2nccc(Oc3ccc(NC(=S)NC(=O)Cc4ccccc4)cc3F)c2cc1C(=O)NCCN1CCOCC1 [Example 9, 4-(2-Fluoro-4-(3-(2-phenylacetyl)thioureido)phenoxy)-7-methoxy-N-(2-morpholinoethyl)quinoline-6-carboxamide]
68	COc1cc2nccc(Oc3ccc(NC(=S)NC(=O)Cc4ccccc4)cc3F)c2cc1C(=O)NCCOCCO [Example 10, 4-(2-Fluoro-4-(3-(2-phenylacetyl)thioureido)phenoxy)-N-(2-(2-hydroxyethoxy)ethyl)-7-methoxyquinoline-6-carboxamide]
145	COc1cc2nccc(Oc3ccc(NC(=S)NC(=O)Cc4ccccc4)cc3F)c2cc1C(=O)NCCNC(C)=O [Example 11, N-(2-Acetamidoethyl)-4-(2-fluoro-4-(3-(2-phenylacetyl)thioureido)phenoxy)-7-methoxyquinoline-6-carboxamide]
52	COc1cc2nccc(Oc3ccc(NC(=S)NC(=O)Cc4ccccc4)cc3F)c2cc1C(=O)NC(CO)CO [Example 12, N-(1,3-Dihydroxypropan-2-yl)-4-(2-fluoro-4-(3-(2-phenylacetyl)thioureido)phenoxy)-7-methoxyquinoline-6-carboxamide]
157	COc1cc2nccc(Oc3ccc(NC(=S)NC(=O)Cc4ccccc4)cc3F)c2cc1C(=O)NC1CCNCC1 [Example 14, 4-(2-Fluoro-4-(3-(2-phenylacetyl)thioureido)phenoxy)-7-methoxy-N-(piperidin-4-yl)quinoline-6-carboxamide dihydrochloride]
177	COc1cc2nccc(Oc3ccc(NC(=S)NC(=O)Cc4ccccc4)cc3F)c2cc1C(=O)NC1CCCCNC1=O (stereo not drawn) [Example 16, 4-(2-Fluoro-4-(3-(2-phenylacetyl)thioureido)phenoxy)-7-methoxy-N-(2-oxoazepan-3-yl)quinoline-6-carboxamide]
30	COc1cc2nccc(Oc3ccc(NC(=S)NC(=O)Cc4ccccc4)cc3F)c2cc1C(=O)NCC(=O)N1CCCC1 [Example 17, 4-(2-Fluoro-4-(3-(2-phenylacetyl)thioureido)phenoxy)-7-methoxy-N-(2-oxo-2-(pyrrolidin-1-yl)ethyl)quinoline-6-carboxamide]
300	COc1cc2nccc(Oc3ccc(NC(=S)NC(=O)Cc4ccccc4)cc3F)c2cc1C(=O)NC1CCN(C(C)=O)CC1 [Example 18, N-(1-Acetylpiperidin-4-yl)-4-(2-fluoro-4-(3-(2-phenylacetyl)thioureido)phenoxy)-7-methoxyquinoline-6-carboxamide]
250	CCC(O)CNC(=O)c1cc2c(Oc3ccc(NC(=S)NC(=O)Cc4ccc(F)cc4)cc3F)ccnc2cc1OC (stereo not drawn) [Example 23, 4-(2-Fluoro-4-(3-(2-(4-fluorophenyl)acetyl)thioureido)phenoxy)-N-(2-hydroxybutyl)-7-methoxyquinoline-6-carboxamide]
72	COc1cc2nccc(Oc3ccc(NC(=S)NC(=O)Cc4ccccc4)cc3F)c2cc1C(=O)NCC1(O)CCCCC1 [Example 25, 4-(2-Fluoro-4-(3-(2-phenylacetyl)thioureido)phenoxy)-N-((1-hydroxycyclohexyl)methyl)-7-methoxyquinoline-6-carboxamide]
125	COc1cc2nccc(Oc3ccc(NC(=S)NC(=O)Cc4ccccc4)cc3F)c2cc1C(=O)NCC1(O)CCOCC1 [Example 26, 4-(2-Fluoro-4-(3-(2-phenylacetyl)thioureido)phenoxy)-N-((4-hydroxytetrahydro-2H-pyran-4-yl)methyl)-7-methoxyquinoline-6-carboxamide]
94	COc1cc2nccc(Oc3ccc(NC(=S)NC(=O)Cc4ccccc4)cc3F)c2cc1C(=O)Nc1ccccc1C [Example 28, 4-(2-Fluoro-4-(3-(2-phenylacetyl)thioureido)phenoxy)-7-methoxy-N-o-tolylquinoline-6-carboxamide]
234	COc1cc2nccc(Oc3ccc(NC(=S)NC(=O)Cc4ccccc4)cc3F)c2cc1C(=O)N[C@H](CO)c1ccccc1 [Example 29, (S)-4-(2-Fluoro-4-(3-(2-phenylacetyl)thioureido)phenoxy)-N-(2-hydroxy-1-phenylethyl)-7-methoxyquinoline-6-carboxamide]
40	COc1cc2nccc(Oc3ccc(NC(=S)NC(=O)Cc4ccccc4)cc3F)c2cc1C(=O)NCC(O)c1nnn(C)n1 (stereo not drawn) [Example 30, 4-(2-Fluoro-4-(3-(2-phenylacetyl)thioureido)phenoxy)-N-(2-hydroxy-2-(2-methyl-2H-tetrazol-5-yl)ethyl)-7-methoxyquinoline-6-carboxamide]
134	COc1cc2nccc(Oc3ccc(NC(=S)NC(=O)Cc4ccccc4)cc3F)c2cc1C(=O)N1CCC(N2CCCC2)CC1 [Example 51, N-(3-Fluoro-4-(7-methoxy-6-(4-(pyrrolidin-1-yl)piperidine-1-carbonyl)quinolin-4-yloxy)phenylcarbamothioyl)-2-phenylacetamide]
142	COc1cc2nccc(Oc3ccc(NC(=S)NC(=O)Cc4ccccc4)cc3F)c2cc1C(=O)N1CCC(O)C1 (stereo not drawn) [Example 52, N-(3-Fluoro-4-(6-(3-hydroxypyrrolidine-1-carbonyl)-7-methoxyquinolin-4-yloxy)phenylcarbamothioyl)-2-phenylacetamide]
